In ChEMBL document CHEMBL1649076, “Discovery of 5-chloro-N2-[(1S)-1-(5-fluoropyrimidin-2-yl)ethyl]-N4-(5-methyl-1H-pyrazol-3-yl)pyrimidine-2,4-diamine (AZD1480) as a novel inhibitor of the Jak/Stat pathway” (J Med Chem, 2011):
Blank lines part the entries; values can stand above or below the compound they belong to.

What was measured:
[1] = biological target: T1, Tyrosine-protein kinase JAK2 (Homo sapiens, UniProt O60674); assay: Inhibition of JAK2 using Km ATP concentration
[2] = Octanol-water partition coefficient, log D of the compound at pH 7.4 by shake flask method; assay type: physicochemical
[3] = biological target: T1, Tyrosine-protein kinase JAK2; assay: Inhibition of JAK2 using 5 mM of ATP
[4] = biological target: T2, Tyrosine-protein kinase JAK3 (Homo sapiens, UniProt P52333); assay: Inhibition of JAK3 using 5 mM of ATP
T2 sequence (P52333 whole entry): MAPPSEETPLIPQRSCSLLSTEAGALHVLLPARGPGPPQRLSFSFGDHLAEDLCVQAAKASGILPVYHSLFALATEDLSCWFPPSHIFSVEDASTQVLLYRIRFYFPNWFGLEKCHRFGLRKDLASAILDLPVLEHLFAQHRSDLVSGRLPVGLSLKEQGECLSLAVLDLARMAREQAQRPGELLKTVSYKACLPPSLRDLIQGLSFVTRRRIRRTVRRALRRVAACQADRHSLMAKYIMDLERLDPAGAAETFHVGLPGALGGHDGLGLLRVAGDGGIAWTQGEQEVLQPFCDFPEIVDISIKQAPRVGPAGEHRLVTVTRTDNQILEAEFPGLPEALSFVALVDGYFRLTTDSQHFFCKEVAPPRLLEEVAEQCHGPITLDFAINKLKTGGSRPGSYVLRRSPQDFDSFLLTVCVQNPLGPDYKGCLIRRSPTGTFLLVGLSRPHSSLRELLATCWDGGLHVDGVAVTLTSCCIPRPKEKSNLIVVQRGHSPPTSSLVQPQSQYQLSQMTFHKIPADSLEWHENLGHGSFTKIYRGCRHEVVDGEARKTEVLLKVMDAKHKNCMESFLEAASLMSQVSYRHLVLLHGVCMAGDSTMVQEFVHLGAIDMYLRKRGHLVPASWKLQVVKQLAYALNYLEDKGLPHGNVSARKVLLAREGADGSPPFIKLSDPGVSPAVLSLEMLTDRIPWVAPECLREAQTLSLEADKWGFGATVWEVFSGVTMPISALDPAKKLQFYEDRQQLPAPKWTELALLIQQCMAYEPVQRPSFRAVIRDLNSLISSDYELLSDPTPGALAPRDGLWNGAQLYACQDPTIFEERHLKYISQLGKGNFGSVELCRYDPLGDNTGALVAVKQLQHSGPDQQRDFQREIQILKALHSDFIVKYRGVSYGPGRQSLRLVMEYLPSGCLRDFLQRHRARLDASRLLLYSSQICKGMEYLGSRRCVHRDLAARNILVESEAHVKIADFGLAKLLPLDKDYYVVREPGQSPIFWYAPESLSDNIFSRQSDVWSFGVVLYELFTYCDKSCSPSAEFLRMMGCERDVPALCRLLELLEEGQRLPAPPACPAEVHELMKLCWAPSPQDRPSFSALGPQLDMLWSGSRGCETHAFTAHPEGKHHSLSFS

[5] = Aqueous equilibrium solubility of the compound at pH 7.4 by HPLC-UV analysis; assay type: physicochemical
[6] = Growth inhibition of mouse BA/F3 cells expressing Tel-JAK2 kinase after 48 hrs by MTS assay; assay type: functional; conditions: BaF3, 48 h
[7] = Oral bioavailability in Han Wistar rat at 10 mg/kg; assay type: ADME, organism-based; conditions: in vivo
[8] = Volume of distribution at steady state in Han Wistar rat at 10 mg/kg, po and 3 mg/kg, iv; assay type: ADME, organism-based; conditions: in vivo, read-out: Vdss
[9] = Observed clearance in Han Wistar rat at 10 mg/kg, po and 3 mg/kg, iv; assay type: ADME, organism-based; conditions: in vivo
[10] = Half life in Han Wistar rat at 10 mg/kg, po and 3 mg/kg, iv; assay type: ADME, organism-based; conditions: in vivo
[11] = system: Liver microsomes; assay: Intrinsic clearance in rat liver microsomes assessed per mg of protein at 2 uM by LCMS/MS analysis; assay type: ADME, Microsome
[12] = AUC (0 to 24 hrs) in Han Wistar rat at 10 mg/kg, po; assay type: ADME, organism-based; set-up: time < 24 hr, dose 10 mg/kg, route oral; conditions: plasma
[13] = Growth inhibition of human SET2 cells expressing Jak2 V617F mutant after 48 hrs by MTS assay; assay type: functional; conditions: SET-2, 48 h
[14] = Half life in Beagle dog at 2.5 mg/kg, iv; assay type: ADME, organism-based, Canis lupus familiaris; set-up: dose 2.5 mg/kg, route intravenous; conditions: in vivo
[15] = Growth inhibition of mouse BA/F3 cells expressing Tel-JAK3 kinase after 48 hrs by MTS assay; assay type: functional; conditions: BaF3, 48 h
[16] = Half life in CD1 mouse at 10 mg/kg, po; assay type: ADME, organism-based; set-up: dose 10 mg/kg, route oral; conditions: in vivo
[17] = Half life in Beagle dog at 10 mg/kg, po; assay type: ADME, organism-based, Canis lupus familiaris; set-up: dose 10 mg/kg, route oral; conditions: in vivo
[18] = system: Mus musculus; assay: Antitumor activity against mouse BA/F3 cells expressing Tel-JAK2 xenografted in NCr mouse assessed as reduction of phosphorylated Stat5 level in spleen at 10 mg/kg, po after 8 hrs by Western blotting; assay type: functional, BaF3; set-up: scale not given: the % may be the effect or the level left
[19] = Antitumor activity against mouse BA/F3 cells expressing Tel-JAK2-luc xenografted in NCr mouse assessed as reduction of bioluminescent signal at 30 mg/kg, po bid measured on day 9 post-tumor cell implantation relative to control; assay type: functional, BaF3
[20] = Volume of distribution at steady state in CD1 mouse at 3 mg/kg, iv; assay type: ADME, organism-based; set-up: dose 3 mg/kg, route intravenous; conditions: in vivo, read-out: Vdss
[21] = AUC (0 to 12 hrs) in CD1 mouse at 10 mg/kg, po; assay type: ADME, organism-based; set-up: time < 12 hr, dose 10 mg/kg, route oral; conditions: plasma
[22] = Growth inhibition of human UKE1 cells expressing Jak2 V617F mutant after 48 hrs by MTS assay; assay type: functional; conditions: UKE1, 48 h
[23] = Half life in CD1 mouse at 3 mg/kg, iv; assay type: ADME, organism-based; set-up: dose 3 mg/kg, route intravenous; conditions: in vivo
[24] = Inhibition of Stat5 phosphorylation in mouse Ba/F3 cells expressing TEL-Jak2; assay type: cell-based; conditions: BaF3
[25] = Observed clearance in CD1 mouse at 3 mg/kg, iv; assay type: ADME, organism-based; set-up: dose 3 mg/kg, route intravenous; conditions: in vivo
[26] = biological target: High affinity nerve growth factor receptor (Homo sapiens, UniProt P04629); assay: Inhibition of TrkA
Sequence of High affinity nerve growth factor receptor (P04629 whole entry): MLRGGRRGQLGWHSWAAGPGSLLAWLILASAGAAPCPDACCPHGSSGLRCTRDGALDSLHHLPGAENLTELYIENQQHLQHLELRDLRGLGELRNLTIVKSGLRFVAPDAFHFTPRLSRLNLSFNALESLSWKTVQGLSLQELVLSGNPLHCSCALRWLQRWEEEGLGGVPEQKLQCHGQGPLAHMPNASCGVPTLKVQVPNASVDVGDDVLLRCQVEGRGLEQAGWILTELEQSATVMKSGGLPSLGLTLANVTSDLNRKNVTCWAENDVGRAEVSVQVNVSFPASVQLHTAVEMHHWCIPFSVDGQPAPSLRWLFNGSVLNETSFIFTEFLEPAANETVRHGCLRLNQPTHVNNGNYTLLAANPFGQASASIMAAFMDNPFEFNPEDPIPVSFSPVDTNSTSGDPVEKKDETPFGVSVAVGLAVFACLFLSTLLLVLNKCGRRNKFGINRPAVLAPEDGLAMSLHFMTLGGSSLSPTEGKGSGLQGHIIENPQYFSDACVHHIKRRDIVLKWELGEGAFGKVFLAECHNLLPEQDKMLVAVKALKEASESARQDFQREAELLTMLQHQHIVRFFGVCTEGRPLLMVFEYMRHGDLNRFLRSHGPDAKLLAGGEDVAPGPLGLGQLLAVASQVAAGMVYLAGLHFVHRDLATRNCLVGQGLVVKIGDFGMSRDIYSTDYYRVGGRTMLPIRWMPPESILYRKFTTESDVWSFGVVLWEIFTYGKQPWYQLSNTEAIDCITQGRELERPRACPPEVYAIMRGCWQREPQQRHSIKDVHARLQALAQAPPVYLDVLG

[27] = AUC (0 to 12 hrs) in Beagle dog at 10 mg/kg, po; assay type: ADME, organism-based, Canis lupus familiaris; set-up: time < 12 hr, dose 10 mg/kg, route oral; conditions: plasma
[28] = system: Mus musculus; assay: Antitumor activity against mouse BA/F3 cells expressing Tel-JAK2 xenografted in NCr mouse assessed as reduction of phosphorylated Stat5 level in spleen at 5 mg/kg, po after 6 hrs by Western blotting; assay type: functional, BaF3; set-up: scale not given: the % may be the effect or the level left
[29] = Growth inhibition of mouse BA/F3 cells expressing Tel-JAK1 kinase after 48 hrs by MTS assay; assay type: functional; conditions: BaF3, 48 h
[30] = system: HEL; assay: Growth inhibition of human HEL cells expressing Jak2 V617F mutant after 48 hrs by MTS assay; assay type: functional
[31] = Observed clearance in Beagle dog at 2.5 mg/kg, iv; assay type: ADME, organism-based, Canis lupus familiaris; set-up: dose 2.5 mg/kg, route intravenous; conditions: in vivo
[32] = Antitumor activity against mouse BA/F3 cells expressing Tel-JAK2-luc xenografted in NCr mouse assessed as reduction of bioluminescent signal at 50 mg/kg, po bid measured on day 9 post-tumor cell implantation relative to control; assay type: functional, BaF3
[33] = Growth inhibition of mouse BA/F3 cells expressing Tel-Tyk2 kinase after 48 hrs by MTS assay; assay type: functional; conditions: BaF3, 48 h
[34] = Oral bioavailability in Beagle dog at 10 mg/kg; assay type: ADME, organism-based, Canis lupus familiaris; conditions: in vivo
[35] = Volume of distribution at steady state in Beagle dog at 2.5 mg/kg, iv; assay type: ADME, organism-based, Canis lupus familiaris; set-up: dose 2.5 mg/kg, route intravenous; conditions: in vivo, read-out: Vdss
[36] = system: Mus musculus; assay: Antitumor activity against mouse BA/F3 cells expressing Tel-JAK2 xenografted in NCr mouse assessed as reduction of phosphorylated Stat5 level in spleen at 5 mg/kg, po after 2 hrs by Western blotting; assay type: functional, BaF3; set-up: scale not given: the % may be the effect or the level left
[37] = Oral bioavailability in CD1 mouse at 10 mg/kg; assay type: ADME, organism-based; conditions: in vivo

T1 sequence (O60674 whole entry): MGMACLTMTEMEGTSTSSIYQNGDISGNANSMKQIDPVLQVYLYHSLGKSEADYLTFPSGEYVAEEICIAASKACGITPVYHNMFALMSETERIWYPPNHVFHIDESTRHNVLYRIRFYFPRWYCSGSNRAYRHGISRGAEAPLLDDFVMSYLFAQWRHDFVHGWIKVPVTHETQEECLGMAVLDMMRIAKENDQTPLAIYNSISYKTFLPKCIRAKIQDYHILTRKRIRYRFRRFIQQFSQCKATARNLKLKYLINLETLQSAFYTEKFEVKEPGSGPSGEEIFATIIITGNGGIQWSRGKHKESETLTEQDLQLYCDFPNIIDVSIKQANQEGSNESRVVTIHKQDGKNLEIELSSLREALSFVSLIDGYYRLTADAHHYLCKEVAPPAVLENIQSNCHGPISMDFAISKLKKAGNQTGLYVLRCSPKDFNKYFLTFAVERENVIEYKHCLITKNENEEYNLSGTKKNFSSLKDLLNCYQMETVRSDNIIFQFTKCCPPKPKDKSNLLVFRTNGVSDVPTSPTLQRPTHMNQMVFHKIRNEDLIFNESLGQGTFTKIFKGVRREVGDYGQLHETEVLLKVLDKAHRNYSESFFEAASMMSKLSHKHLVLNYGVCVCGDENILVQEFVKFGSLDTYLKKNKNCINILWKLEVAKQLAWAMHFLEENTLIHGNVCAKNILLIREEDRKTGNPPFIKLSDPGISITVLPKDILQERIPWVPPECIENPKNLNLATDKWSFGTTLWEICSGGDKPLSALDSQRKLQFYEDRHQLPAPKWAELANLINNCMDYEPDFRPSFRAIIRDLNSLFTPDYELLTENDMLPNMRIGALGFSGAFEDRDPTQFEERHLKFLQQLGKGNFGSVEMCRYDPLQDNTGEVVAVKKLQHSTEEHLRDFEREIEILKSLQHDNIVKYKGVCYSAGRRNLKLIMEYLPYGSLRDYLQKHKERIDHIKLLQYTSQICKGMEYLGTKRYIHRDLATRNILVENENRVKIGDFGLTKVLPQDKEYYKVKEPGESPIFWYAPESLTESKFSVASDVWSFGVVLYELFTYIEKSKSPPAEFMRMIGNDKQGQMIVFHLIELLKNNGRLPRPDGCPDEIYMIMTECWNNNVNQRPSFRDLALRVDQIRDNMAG

IC50 [1]: 0.009 µM | logD [2]: < 2.6 | IC50 [3]: 0.488 µM | IC50 [4]: > 30 µM | solubility thermodynamic [5]: > 460 µM
Compound: C[C@H](Nc1ncc(Cl)c(Nc2cc(N(C)C)[nH]n2)n1)c1ncc(F)cn1
GI50 [6]: 1.2 µM

IC50 [1]: 0.016 µM | logD [2]: < 2.6 | IC50 [3]: 0.815 µM | IC50 [4]: > 30 µM | solubility thermodynamic [5]: > 460 µM
Compound: C[C@H](Nc1ncc(F)c(Nc2cc(N(C)C)[nH]n2)n1)c1ncc(F)cn1
GI50 [6]: 2.2 µM

bioavailability [7]: 64% | Vd [8]: 1.4 L/kg | clearance [9]: 18 mL/min/kg | IC50 [1]: < 0.003 µM | half-life [10]: 1.1 h | logD [2]: < 2.6 | clearance [11]: 10 µL/min/mg | IC50 [3]: < 0.003 µM | IC50 [4]: 0.03 µM | solubility thermodynamic [5]: > 460 µM
Compound: Cc1cc(Nc2cc(N3CCOCC3)nc(N[C@@H](C)c3ncc(F)cn3)n2)[nH]n1
GI50 [6]: 0.05 µM

bioavailability [7]: 34% | Vd [8]: 1.7 L/kg | clearance [9]: 14 mL/min/kg | IC50 [1]: < 0.003 µM | half-life [10]: 1.9 h | logD [2]: < 2.6 | IC50 [3]: < 0.003 µM | IC50 [4]: > 30 µM | solubility thermodynamic [5]: > 460 µM
Compound: Cc1cc(Nc2nc(N[C@@H](C)c3ncc(F)cn3)nc(N3CCOCC3)c2F)n[nH]1
GI50 [6]: 0.013 µM

bioavailability [7]: 20% | Vd [8]: 4.6 L/kg | clearance [9]: 221 mL/min/kg | IC50 [1]: < 0.003 µM | half-life [10]: 0.36 h | logD [2]: < 2.6 | clearance [11]: 16 µL/min/mg | IC50 [3]: 0.009 µM | IC50 [4]: 11.8 µM | solubility thermodynamic [5]: > 460 µM
Compound: Cc1cc(Nc2nc(N[C@@H](C)c3ncc(F)cn3)nc(N3CCOCC3)c2Cl)n[nH]1
GI50 [6]: 0.017 µM

IC50 [1]: 0.01 µM | logD [2]: < 2.6 | IC50 [3]: 0.03 µM | IC50 [4]: 0.2 µM | solubility thermodynamic [5]: > 460 µM
Compound: COc1cc(Nc2cc(N3CCOCC3)nc(N[C@@H](C)c3ncc(F)cn3)n2)n[nH]1
GI50 [6]: 0.073 µM

IC50 [1]: 0.004 µM | logD [2]: < 2.6 | IC50 [3]: 0.008 µM | IC50 [4]: 30.5 µM | solubility thermodynamic [5]: > 460 µM
Compound: COc1cc(Nc2nc(N[C@@H](C)c3ncc(F)cn3)nc(N3CCOCC3)c2F)n[nH]1
GI50 [6]: 0.24 µM

IC50 [1]: 0.004 µM | logD [2]: < 2.6 | IC50 [3]: 0.09 µM | IC50 [4]: 2.96 µM | solubility thermodynamic [5]: > 460 µM
Compound: COc1cc(Nc2nc(N[C@@H](C)c3ncc(F)cn3)nc(N3CCOCC3)c2Cl)n[nH]1
GI50 [6]: 1.3 µM

AUC(0-t) at 24 h [12]: 33.5 µM·h | Vd [8]: 3 L/kg | clearance [9]: 19 mL/min/kg | half-life [10]: 2.9 h | logD [2]: < 2.6 | solubility thermodynamic [5]: > 460 µM
Compound: Cc1cc(Nc2nc(N[C@H](C)c3ncc(F)cn3)ncc2Cl)n[nH]1
GI50 [6]: 11 µM

bioavailability [7]: 47% | half-life [14]: 6.9 h | half-life [16]: 2 h | half-life [17]: 8.5 h | Vd [20]: 1.1 L/kg | AUC(0-t) at 12 h [21]: 57.6 µM·h | half-life [23]: 1.5 h | Vd [8]: 3.6 L/kg | clearance [9]: 8.9 mL/min/kg | IC50 [24]: 0.046 µM | IC50 [1]: < 0.003 µM | clearance [25]: 13.5 mL/min/kg | IC50 [26]: 0.003 µM | AUC(0-t) at 12 h [27]: 350 µM·h | half-life [10]: 4.7 h | logD [2]: < 2.6 | clearance [11]: 11 µL/min/mg | IC50 [3]: 0.058 µM | clearance [31]: 2 mL/min/kg | IC50 [4]: 1.36 µM | bioavailability [34]: 100% | solubility thermodynamic [5]: > 460 µM | Vd [35]: 1 L/kg | bioavailability [37]: 100%
Compound: Cc1cc(Nc2nc(N[C@@H](C)c3ncc(F)cn3)ncc2Cl)n[nH]1 [AZD-1480]
GI50 [13]: 0.016 µM | GI50 [15]: 2.1 µM | Activity [18]: >70% | Activity [19]: 9 | GI50 [22]: 0.054 µM | Activity [28]: 50% | GI50 [29]: 0.7 µM | GI50 [30]: 0.39 µM | Activity [32]: 44 | GI50 [33]: 2 µM | GI50 [6]: 0.06 µM | Activity [36]: 90%
